Measurements published in US11059789B2, “Isoquinoline-steroid conjugates and uses thereof” (priority 2018, dated 2021).
Counter-ions that a name gives are not always drawn.

How the values were obtained:
ROCK1 = ROCK1 (Homo sapiens (Human), UniProt Q13464); experiment: Kinase assay ROCK1; format: biochemical; details: HCl salt
Method: (§1) Inhibition of various kinases was assayed.

in vitro = format: cell-based
NFkB = NFkB assay; format: cell-based; details: HCl salt
Method: as §1

[1] = test system: Myeloperoxidase (MPO) activity; experiment: Myeloperoxidase (MPO) activity after intravitreal LPS in mice; format: in vivo, C57Bl6 male mice; details: dosed at 0 and 6 hours
Method: Adult C57Bl6 male mice were injected with 2 ng of lipopolysaccharide (LPS) intravitreally. The mice were then dosed with vehicle, compounds or control treatments (0.07% w/w, 0.02% w/w or 0.007% w/w) at times 0 and 6 hours post-injection. Aqueous humor (AH) and vitreous humor (VH) was collected 24 hours after injection of LPS and assayed for MPO activity by ELISA. Data is a compilation of two separate experiments. Statistical analysis was carried out on GraphPad prism using a multiple comparisons 1-way ANOVA with uncorrected Dunn's test. Results are shown in FIG. 5 (aqueous humor) and FIG. 6 (vitreous humor). In FIG. 5 and FIG. 6, Dex refers to dexamethasone, Compound A refers to (S)-3-amino-2-(4-(hydroxymethyl)phenyl)-N-(isoquinolin-6-yl)propanamide, * refers to p<0.05, and ** refers to p<0.005. MPO levels correspond to levels of neutrophil infiltration. In the context of non-infectious inflammatory events, neutrophils cause robust levels of damage to tissues.

TYK2 = TYK2 (Homo sapiens (Human), UniProt P29597); experiment: Kinase assay TYK2; format: biochemical; details: HCl salt
Method: as §1

PKCh = PKCh (Homo sapiens (Human), UniProt P24723); experiment: Kinase assay PKCh; format: biochemical; details: HCl salt
Method: as §1

JAK2 = JAK2 (Homo sapiens (Human), UniProt O60674); experiment: Kinase assay JAK2; format: biochemical; details: HCl salt
JAK3 = JAK3 (Homo sapiens (Human), UniProt P52333); experiment: Kinase assay JAK3; format: biochemical; details: HCl salt
Method: as §1

PKA = PKA (Homo sapiens, UniProt P17612); experiment: Kinase assay PKA; format: biochemical; details: HCl salt
Method: as §1

ROCK2 = ROCK2 (Homo sapiens (Human), UniProt O75116); experiment: Kinase assay ROCK2; format: biochemical; details: HCl salt
Method: as §1

HTM = HTM assay; format: cell-based; details: HCl salt
Method: as §1

PKCe = PKCe (Homo sapiens (Human), UniProt Q02156); experiment: Kinase assay PKCe; format: biochemical; details: HCl salt
Method: as §1

AKT1 = AKT1 (Homo sapiens (Human), UniProt P31749); experiment: Kinase assay AKT1; format: biochemical; details: HCl salt
Method: as §1

JAK1 = JAK1 (Homo sapiens (Human), UniProt P23458); experiment: Kinase assay JAK1; format: biochemical; details: HCl salt
Method: as §1

PKCd = PKCd (Homo sapiens (Human), UniProt Q05655); experiment: Kinase assay PKCd; format: biochemical; details: HCl salt
Method: as §1

IKKb = IKKb (Homo sapiens (Human), UniProt O14920); experiment: Kinase assay IKKb; format: biochemical; details: HCl salt
Method: as §1

PTM = PTM assay; format: cell-based; details: HCl salt
Method: as §1

ROCK1, sequence (Q13464 whole entry, species assumed): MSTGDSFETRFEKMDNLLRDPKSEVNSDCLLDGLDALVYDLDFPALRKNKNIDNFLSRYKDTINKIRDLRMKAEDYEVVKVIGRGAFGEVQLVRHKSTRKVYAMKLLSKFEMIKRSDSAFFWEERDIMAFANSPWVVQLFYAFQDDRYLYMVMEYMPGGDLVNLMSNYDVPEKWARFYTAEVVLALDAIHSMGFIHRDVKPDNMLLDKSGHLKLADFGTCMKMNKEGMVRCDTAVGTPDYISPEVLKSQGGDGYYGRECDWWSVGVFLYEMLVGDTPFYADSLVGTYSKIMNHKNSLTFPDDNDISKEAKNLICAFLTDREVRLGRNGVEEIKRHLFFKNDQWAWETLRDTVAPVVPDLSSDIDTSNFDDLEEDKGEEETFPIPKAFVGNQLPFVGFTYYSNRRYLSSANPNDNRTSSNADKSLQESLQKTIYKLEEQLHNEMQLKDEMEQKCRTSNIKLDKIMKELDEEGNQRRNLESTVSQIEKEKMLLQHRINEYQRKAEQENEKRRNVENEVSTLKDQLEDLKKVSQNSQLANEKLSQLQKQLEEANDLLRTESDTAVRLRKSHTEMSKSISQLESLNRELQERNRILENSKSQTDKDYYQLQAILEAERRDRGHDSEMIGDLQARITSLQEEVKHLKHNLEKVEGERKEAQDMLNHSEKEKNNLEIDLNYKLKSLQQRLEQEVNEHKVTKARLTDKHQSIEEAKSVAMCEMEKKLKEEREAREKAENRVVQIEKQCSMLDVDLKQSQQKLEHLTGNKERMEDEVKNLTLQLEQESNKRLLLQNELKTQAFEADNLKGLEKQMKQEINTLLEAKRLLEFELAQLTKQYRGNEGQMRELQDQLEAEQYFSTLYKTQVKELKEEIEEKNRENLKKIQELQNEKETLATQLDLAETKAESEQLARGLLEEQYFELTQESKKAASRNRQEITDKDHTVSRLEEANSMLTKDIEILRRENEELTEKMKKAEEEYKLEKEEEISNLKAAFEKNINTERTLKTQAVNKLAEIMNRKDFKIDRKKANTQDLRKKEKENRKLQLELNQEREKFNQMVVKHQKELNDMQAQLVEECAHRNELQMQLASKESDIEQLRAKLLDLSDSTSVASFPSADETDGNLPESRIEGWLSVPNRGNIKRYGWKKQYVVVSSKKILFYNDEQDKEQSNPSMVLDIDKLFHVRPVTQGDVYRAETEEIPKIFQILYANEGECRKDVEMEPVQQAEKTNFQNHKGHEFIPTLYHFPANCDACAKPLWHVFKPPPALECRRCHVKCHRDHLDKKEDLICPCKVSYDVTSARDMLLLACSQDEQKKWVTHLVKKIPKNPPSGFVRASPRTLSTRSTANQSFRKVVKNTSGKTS
JAK3, sequence (P52333 whole entry, species assumed): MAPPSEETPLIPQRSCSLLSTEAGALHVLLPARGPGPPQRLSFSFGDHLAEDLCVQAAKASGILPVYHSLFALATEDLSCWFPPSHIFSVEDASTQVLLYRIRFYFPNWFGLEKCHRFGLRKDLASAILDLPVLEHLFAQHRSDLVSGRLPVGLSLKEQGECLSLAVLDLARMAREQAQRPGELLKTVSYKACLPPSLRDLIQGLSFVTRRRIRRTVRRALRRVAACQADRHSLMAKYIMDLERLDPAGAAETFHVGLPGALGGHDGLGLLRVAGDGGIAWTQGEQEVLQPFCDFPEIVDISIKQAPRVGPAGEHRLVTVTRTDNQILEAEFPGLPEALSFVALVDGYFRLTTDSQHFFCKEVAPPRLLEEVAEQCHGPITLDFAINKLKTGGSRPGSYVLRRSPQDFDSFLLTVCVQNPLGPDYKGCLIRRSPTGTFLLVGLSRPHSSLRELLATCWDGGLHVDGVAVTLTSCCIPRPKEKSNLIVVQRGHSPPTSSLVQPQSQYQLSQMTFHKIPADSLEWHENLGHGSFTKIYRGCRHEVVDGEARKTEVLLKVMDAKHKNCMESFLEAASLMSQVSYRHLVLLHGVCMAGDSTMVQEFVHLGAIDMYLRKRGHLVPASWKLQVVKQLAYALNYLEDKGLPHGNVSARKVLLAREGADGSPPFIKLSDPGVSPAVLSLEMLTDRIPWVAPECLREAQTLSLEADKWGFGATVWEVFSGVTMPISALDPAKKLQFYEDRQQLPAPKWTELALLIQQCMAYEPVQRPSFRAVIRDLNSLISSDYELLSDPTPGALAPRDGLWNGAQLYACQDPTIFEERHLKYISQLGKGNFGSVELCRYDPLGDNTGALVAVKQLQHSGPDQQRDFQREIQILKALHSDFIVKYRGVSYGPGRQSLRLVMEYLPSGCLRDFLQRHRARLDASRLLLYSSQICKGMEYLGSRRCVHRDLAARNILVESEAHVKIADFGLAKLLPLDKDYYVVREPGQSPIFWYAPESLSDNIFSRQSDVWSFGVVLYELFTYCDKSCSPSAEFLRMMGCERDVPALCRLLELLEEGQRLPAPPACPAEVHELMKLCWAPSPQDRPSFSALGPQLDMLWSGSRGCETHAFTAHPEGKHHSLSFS
JAK1, sequence (P23458 whole entry, species assumed): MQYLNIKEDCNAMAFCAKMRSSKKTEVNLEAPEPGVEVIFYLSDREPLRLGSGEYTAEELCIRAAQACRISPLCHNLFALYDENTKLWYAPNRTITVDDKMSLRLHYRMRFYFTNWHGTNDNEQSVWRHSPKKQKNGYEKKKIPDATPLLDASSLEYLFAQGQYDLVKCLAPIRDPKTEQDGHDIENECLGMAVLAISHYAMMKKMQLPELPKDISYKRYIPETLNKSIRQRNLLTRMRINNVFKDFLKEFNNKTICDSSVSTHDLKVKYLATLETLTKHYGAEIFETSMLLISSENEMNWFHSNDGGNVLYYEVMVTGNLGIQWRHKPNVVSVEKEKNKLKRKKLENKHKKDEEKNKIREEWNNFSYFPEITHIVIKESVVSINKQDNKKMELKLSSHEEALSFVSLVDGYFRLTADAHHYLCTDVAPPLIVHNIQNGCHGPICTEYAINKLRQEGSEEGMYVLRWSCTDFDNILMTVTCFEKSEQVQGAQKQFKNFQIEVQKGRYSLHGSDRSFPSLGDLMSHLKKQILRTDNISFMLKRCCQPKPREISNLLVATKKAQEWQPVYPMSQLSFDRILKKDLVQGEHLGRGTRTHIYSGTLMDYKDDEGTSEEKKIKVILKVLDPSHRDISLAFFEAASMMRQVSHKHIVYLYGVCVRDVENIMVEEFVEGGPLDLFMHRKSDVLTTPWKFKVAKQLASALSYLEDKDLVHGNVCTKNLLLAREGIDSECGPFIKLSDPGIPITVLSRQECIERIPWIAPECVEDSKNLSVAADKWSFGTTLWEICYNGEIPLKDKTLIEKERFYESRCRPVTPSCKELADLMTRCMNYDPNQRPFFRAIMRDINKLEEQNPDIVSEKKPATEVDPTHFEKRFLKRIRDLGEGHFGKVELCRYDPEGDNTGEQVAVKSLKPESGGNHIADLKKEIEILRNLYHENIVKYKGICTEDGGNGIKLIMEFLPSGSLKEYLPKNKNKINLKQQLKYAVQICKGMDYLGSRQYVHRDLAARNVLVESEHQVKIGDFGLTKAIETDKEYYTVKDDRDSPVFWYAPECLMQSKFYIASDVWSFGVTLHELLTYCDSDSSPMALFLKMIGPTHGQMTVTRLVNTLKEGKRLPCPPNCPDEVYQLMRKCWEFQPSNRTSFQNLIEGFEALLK
PKCh, sequence (P24723 whole entry): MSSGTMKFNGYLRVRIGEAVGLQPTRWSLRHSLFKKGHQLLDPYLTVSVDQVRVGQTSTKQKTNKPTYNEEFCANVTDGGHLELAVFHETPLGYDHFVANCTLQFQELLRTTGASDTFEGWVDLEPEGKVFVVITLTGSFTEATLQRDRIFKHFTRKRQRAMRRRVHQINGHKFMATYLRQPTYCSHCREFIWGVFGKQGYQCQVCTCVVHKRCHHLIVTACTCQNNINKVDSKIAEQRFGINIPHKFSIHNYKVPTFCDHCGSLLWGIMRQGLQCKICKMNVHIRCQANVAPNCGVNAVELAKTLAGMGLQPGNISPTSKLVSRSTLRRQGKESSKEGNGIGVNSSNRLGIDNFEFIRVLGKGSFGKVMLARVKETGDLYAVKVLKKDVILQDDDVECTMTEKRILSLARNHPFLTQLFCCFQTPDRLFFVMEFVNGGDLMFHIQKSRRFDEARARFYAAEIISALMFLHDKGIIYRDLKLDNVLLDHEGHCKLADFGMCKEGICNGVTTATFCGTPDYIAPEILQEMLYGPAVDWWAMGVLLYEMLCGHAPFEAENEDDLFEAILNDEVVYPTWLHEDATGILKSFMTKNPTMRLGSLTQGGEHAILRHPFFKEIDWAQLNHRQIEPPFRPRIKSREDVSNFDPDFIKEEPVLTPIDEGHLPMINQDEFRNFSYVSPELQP
IKKb, sequence (O14920 whole entry, species assumed): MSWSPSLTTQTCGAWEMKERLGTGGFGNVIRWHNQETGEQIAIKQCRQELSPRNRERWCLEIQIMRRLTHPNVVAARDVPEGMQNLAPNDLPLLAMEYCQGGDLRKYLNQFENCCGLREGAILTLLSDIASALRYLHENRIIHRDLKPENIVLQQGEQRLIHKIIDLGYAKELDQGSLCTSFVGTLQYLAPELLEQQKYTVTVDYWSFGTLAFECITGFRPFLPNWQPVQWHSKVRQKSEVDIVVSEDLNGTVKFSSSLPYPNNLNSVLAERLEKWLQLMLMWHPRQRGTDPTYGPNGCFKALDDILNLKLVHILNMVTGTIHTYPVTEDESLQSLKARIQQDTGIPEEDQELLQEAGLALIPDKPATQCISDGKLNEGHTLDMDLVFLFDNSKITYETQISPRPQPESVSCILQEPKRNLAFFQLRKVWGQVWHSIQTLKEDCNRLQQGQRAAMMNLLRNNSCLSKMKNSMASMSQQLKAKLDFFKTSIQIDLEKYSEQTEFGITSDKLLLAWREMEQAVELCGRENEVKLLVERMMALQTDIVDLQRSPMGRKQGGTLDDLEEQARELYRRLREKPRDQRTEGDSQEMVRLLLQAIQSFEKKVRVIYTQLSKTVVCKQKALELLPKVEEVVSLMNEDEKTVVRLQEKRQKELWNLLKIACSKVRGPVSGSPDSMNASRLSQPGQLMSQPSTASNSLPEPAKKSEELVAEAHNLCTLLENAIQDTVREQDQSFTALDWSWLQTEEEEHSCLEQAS

Row | Structure (SMILES) | IC50 (ROCK1) [nM] | IC50 (in vitro) [nM] | IC50 (NFkB) [nM] | effect on myeloperoxidase activity in aqueous humor ([1]; aqueous humor 24 hours, FIG. 5) | effect on myeloperoxidase activity in vitreous humor ([1]; vitreous humor 24 hours, FIG. 6) | IC50 (TYK2) [nM] | IC50 (PKCh) [nM] | IC50 (JAK2) [nM] | IC50 (JAK3) [nM] | IC50 (PKA) [nM] | IC50 (ROCK2) [nM] | IC50 (HTM) [nM] | IC50 (PKCe) [nM] | IC50 (AKT1) [nM] | IC50 (JAK1) [nM] | IC50 (PKCd) [nM] | IC50 (IKKb) [nM] | IC50 (PTM) [nM]
1 | CC1(C)O[C@@H]2C[C@H]3[C@@H]4CCC5=CC(=O)C=C[C@]5(C)[C@@]4(F)[C@@H](O)C[C@]3(C)[C@]2(C(=O)COC(=O)CCC(=O)OCc2ccc([C@@H](CN)C(=O)Nc3ccc4cnccc4c3)cc2)O1 [Example 33] | 21 | 55200 | 103 | inhibiting effect | inhibiting effect | 50000 | 145 | 42400 | 30100 | 81 | 14 | 4 | 1580 | 1240 | 50000 | 142 | 40100 | 75
2 | C[C@@H]1C[C@H]2[C@@H]3CCC4=CC(=O)C=C[C@]4(C)[C@@]3(F)[C@@H](O)C[C@]2(C)[C@@]1(O)C(=O)COC(=O)c1ccc(C(=O)OCc2ccc([C@@H](CN)C(=O)Nc3ccc4cnccc4c3)cc2)cc1 [Example 66, 4-((S)-3-amino-1-(isoquinolin-6-ylamino)-1-oxopropan-2-yl)benzyl (2-((8S,9R,10S,11S,13S,14S,16R,17R)-9-fluoro-11,17-dihydroxy-10,13,16-trimethyl-3-oxo-6,7,8,9,10,11,12,13,14,15,16,17-dodecahydro-3H-cyclopenta[a]phenanthren-17-yl)-2-oxoethyl) terephthalate dihydrochloride] | 36 | 100000 | 55 |  |  | 50000 | 282 | 36200 | 43200 | 117 | 26 | 15 | 3610 | 1360 | 50000 | 357 | 50000 | 358
3 | C[C@@H]1C[C@H]2[C@@H]3CCC4=CC(=O)C=C[C@]4(C)[C@@]3(F)[C@@H](O)C[C@]2(C)[C@@]1(O)C(=O)COC(=O)C[C@H](N)C(=O)OCc1ccc([C@@H](CN)C(=O)Nc2ccc3cnccc3c2)cc1 [Example 83, 1-(4-((S)-3-amino-1-(isoquinolin-6-ylamino)-1-oxopropan-2-yl)benzyl) 4-(2-((8S,9R,10S,11S,13S,14S,16R,17R)-9-fluoro-11,17-dihydroxy-10,13,16-trimethyl-3-oxo-6,7,8,9,10,11,12,13,14,15,16,17-dodecahydro-3H-cyclopenta[a]phenanthren-17-yl)-2-oxoethyl) L-aspartate trihydrochloride] | 11 | 100000 | 55 |  |  | 50000 | 51 | 22000 | 7730 | 29 | 9 | 25 | 154 | 95 | 34700 | 56 | 19200 | 43
